Some test systems named below: DLD-1; HCT-116; HOP-18; IGROV-1; KM-20L2; Malme-3M; NCI-H23; OVCAR-3; RXF 393; SF-295; SN12C; UACC-257; XF498; NCI-H522; TK-10; 786-0.
Holding throughout (assay): NCI tumour cell line growth inhibition, 48 h

SMILES strings stand for the structures.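 These data come from cells grown in 96-well plates and exposed to compound for 48 hours at five concentrations. Here, GI50 denotes the concentration required for 50% inhibition of growth.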 The source made the active and inactive calls. Rule as the data show it: active = GI50 up to about 1.1 µM and inactive = higher.

`CN(C)CCNC(=O)c1cc(Cl)cc2cc3ccccc3nc12`: the GI50 was 0.652 µM (active) in the assay with DLD-1; 0.445 µM (active) in the assay on HCT-116; 6.44 µM (inactive) in the assay on HOP-18; 1.14 µM (inactive) with IGROV-1; 0.422 µM (active) with KM-20L2; 5.73 µM (inactive) in the assay with Malme-3M. The GI50 in the assay on NCI-H23 is 1.39 µM (inactive); with OVCAR-3, 4.71 µM (inactive); in the assay with RXF 393, 1.06 µM (active); in the assay with SF-295, 0.492 µM (active); in the assay with SN12C it was 0.731 µM (active); in the assay with UACC-257 it was 1.6 µM (inactive). The GI50 with XF498 was 0.966 µM (active).
`CCOC(=O)/C=C/c1c[nH]c(C(=O)OCC)c1`: the GI50 in the assay on DLD-1, in the assay with HCT-116, in the assay with HOP-18, in the assay with IGROV-1, in the assay on KM-20L2 and with Malme-3M was > 100 µM (inactive) in each case. Besides, the GI50 in the assay on NCI-H23 is > 100 µM (inactive); with NCI-H522, > 90.8 µM (inactive); with OVCAR-3, > 100 µM (inactive); in the assay on RXF 393, > 100 µM (inactive); in the assay on SF-295, > 100 µM (inactive); with SN12C, > 100 µM (inactive). The figures for the GI50 in the assay on UACC-257 and in the assay on XF498 were > 100 µM (inactive) and > 95.1 µM (inactive), respectively.
On to `O=C(OCc1ccccc1)OOC(=O)OCc1ccccc1`, for which the GI50 with DLD-1, in the assay with HCT-116, with IGROV-1, in the assay on KM-20L2, with Malme-3M and in the assay on NCI-H23 was > 100 µM (inactive) throughout. The GI50 in the assay with NCI-H522, with OVCAR-3, in the assay on RXF 393, in the assay with SF-295, with SN12C and in the assay with UACC-257 was > 100 µM (inactive) each time.
For the compound `COC(=O)C1C(O)C(C)C(O)C(C)(O)/C=C\C=C(C)C(=O)Nc2c(C)c(OC(C)=O)c3c(c2O)C(=O)C(C)=C2OCOC(=C23)C(C)=CC(C)(O)C(O)C(C)C1OC(C)=O` (stereo not drawn), the GI50 in the assay on DLD-1 was 24.7 µM (inactive); in the assay with HCT-116 it was 21.4 µM (inactive); in the assay on HOP-18, 93.1 µM (inactive); in the assay on IGROV-1, 30.1 µM (inactive); in the assay on KM-20L2, 33.7 µM (inactive); with Malme-3M, 28.9 µM (inactive). For the same compound, the GI50 with NCI-H23 is 24.4 µM (inactive); in the assay with NCI-H522, 32.4 µM (inactive); with OVCAR-3, 27.7 µM (inactive); in the assay on RXF 393 it was 22.4 µM (inactive); with SF-295, 80.4 µM (inactive); in the assay with SN12C it was 24 µM (inactive). The GI50 in the assay on UACC-257 is 26.1 µM (inactive).
With `CC[C@H]1CN2CCc3cc(OC)c(OC)cc3[C@@H]2C[C@@H]1C[C@H]1NCCc2cc(O)c(OC)cc21`, the GI50 in the assay on DLD-1 was 0.0277 µM (active); in the assay with HCT-116, 0.025 µM (active); in the assay with IGROV-1, 0.0385 µM (active); with KM-20L2 it was 0.025 µM (active); with Malme-3M it was 0.0809 µM (active); in the assay on NCI-H23, 0.0261 µM (active). Further, the GI50 in the assay on NCI-H522 was 0.025 µM (active); in the assay on OVCAR-3, 0.0377 µM (active); with RXF 393, 0.0354 µM (active); in the assay on SF-295 it was 0.0326 µM (active); in the assay on SN12C it was 0.0361 µM (active); in the assay with UACC-257 it was 0.0731 µM (active).
As to `N/N=C(\C(=O)Nc1c(Cl)cc([N+](=O)[O-])cc1Cl)C(c1cnc2ccc([N+](=O)[O-])cc2n1)[N+](=O)[O-]` (stereo not drawn), the GI50 with DLD-1 is > 100 µM (inactive); in the assay on HCT-116, > 100 µM (inactive); in the assay with IGROV-1 it was > 100 µM (inactive); in the assay with KM-20L2, > 100 µM (inactive); in the assay on NCI-H23, > 100 µM (inactive); with NCI-H522, 9.98 µM (inactive). Further, the GI50 with RXF 393 is > 100 µM (inactive); in the assay with SF-295, > 100 µM (inactive); in the assay with SN12C, 95.7 µM (inactive); in the assay with TK-10, > 100 µM (inactive); with UACC-257 it was > 100 µM (inactive); in the assay on XF498 it was > 100 µM (inactive).
Regarding `CCOC(=O)CNC(=O)NC12CC3CC(CC(C3)C1)C2`, the GI50 in the assay with DLD-1 was 65.8 µM (inactive); in the assay with HCT-116, 156 µM (inactive); with HOP-18 it was 161 µM (inactive); in the assay on IGROV-1, 240 µM (inactive); with KM-20L2, 237 µM (inactive); in the assay on Malme-3M it was 133 µM (inactive). Further, the GI50 was 182 µM (inactive) in the assay with NCI-H23; 142 µM (inactive) in the assay on NCI-H522; 153 µM (inactive) in the assay on OVCAR-3; 80.9 µM (inactive) in the assay with RXF 393; 322 µM (inactive) in the assay with SF-295; 219 µM (inactive) in the assay on SN12C. The GI50 in the assay on UACC-257 was 176 µM (inactive); in the assay with XF498, 22.1 µM (inactive).
For the compound `CCCCCCSc1nc(N)nc2nc[nH]c12`, the GI50 with DLD-1 was 33.7 µM (inactive); in the assay with HCT-116, 35.2 µM (inactive); in the assay on IGROV-1, 30.5 µM (inactive); with KM-20L2, 39.7 µM (inactive); in the assay on Malme-3M, 35.7 µM (inactive); in the assay with NCI-H23, 31.8 µM (inactive). Besides, the GI50 was 15.7 µM (inactive) in the assay on NCI-H522; 40.2 µM (inactive) in the assay on OVCAR-3; 32.7 µM (inactive) in the assay on RXF 393; 59.6 µM (inactive) in the assay with SF-295; 36.6 µM (inactive) in the assay on SN12C; 37.7 µM (inactive) in the assay with UACC-257. Moreover, the GI50 with XF498 was 32.5 µM (inactive).
`CC(=O)OCC1OC(Nc2ncc(-c3ccc(C)cc3)s2)C(OC(C)=O)C(OC(C)=O)C1OC(C)=O` (stereo not drawn): the GI50 in the assay with DLD-1 was 54.1 µM (inactive); in the assay with HCT-116 it was 26.6 µM (inactive); in the assay with HOP-18 it was 35.8 µM (inactive); with IGROV-1, 66.5 µM (inactive); in the assay with Malme-3M it was 61.5 µM (inactive); with NCI-H23, 50.7 µM (inactive). Further, the GI50 with NCI-H522 is 64.9 µM (inactive); in the assay on OVCAR-3, 31.6 µM (inactive); in the assay with RXF 393, 47.3 µM (inactive); with SF-295, 43.2 µM (inactive); in the assay with SN12C, 25.4 µM (inactive); in the assay on UACC-257 it was 25.6 µM (inactive).
For `C[Si](C)(C)/C(I)=C/CO`, the GI50 in the assay on 786-0 is 37.3 µM (inactive); in the assay on HCT-116 it was 14.3 µM (inactive); in the assay with HOP-18, 32 µM (inactive); in the assay on IGROV-1, 25.1 µM (inactive); in the assay on KM-20L2, 20.5 µM (inactive); in the assay with Malme-3M it was 27.1 µM (inactive). Further, the GI50 in the assay with NCI-H23 was 18 µM (inactive); in the assay on NCI-H522 it was 16.1 µM (inactive); in the assay with OVCAR-3 it was 24.7 µM (inactive); in the assay on SF-295, 24.9 µM (inactive); with SN12C, 22 µM (inactive); in the assay on TK-10, 33.3 µM (inactive). The GI50 was 15.5 µM (inactive) with UACC-257 and 13.6 µM (inactive) in the assay with XF498.
`O=C1C2C3C=C4c5ccccc5N(c5ccccc5)C4(C2C(=O)N1Cc1ccccc1)C1C(=O)N(Cc2ccccc2)C(=O)C31` (stereo not drawn): the GI50 with 786-0, in the assay on DLD-1, with HCT-116, in the assay on HOP-18, in the assay on KM-20L2 and with Malme-3M was > 100 µM (inactive) in each case. Further, the GI50 with NCI-H23 is > 100 µM (inactive); in the assay on SF-295 it was 64 µM (inactive); in the assay with SN12C, > 100 µM (inactive); with TK-10, > 100 µM (inactive); in the assay with UACC-257, > 100 µM (inactive); in the assay with XF498 it was 96.2 µM (inactive).
Turning to `O=S1(=O)CC#CC[C@@H](CO)[C@@H](CO)CC#CC1`, the GI50 was > 100 µM (inactive) with 786-0; > 100 µM (inactive) with DLD-1; 61.2 µM (inactive) in the assay on HCT-116; 43.1 µM (inactive) in the assay on IGROV-1; > 100 µM (inactive) in the assay on KM-20L2; 21.7 µM (inactive) in the assay with Malme-3M. For the same compound, the GI50 is > 100 µM (inactive) in the assay with NCI-H23; 17.9 µM (inactive) in the assay with NCI-H522; > 100 µM (inactive) with OVCAR-3; > 100 µM (inactive) with RXF 393; > 100 µM (inactive) in the assay on SF-295; > 100 µM (inactive) in the assay with SN12C. Besides, the GI50 in the assay with TK-10 was > 100 µM (inactive); with UACC-257, 91.6 µM (inactive); with XF498, > 100 µM (inactive).
With `C=C(CS(=O)(=O)c1ccccc1)[P+](c1ccccc1)(c1ccccc1)c1ccccc1`, the GI50 in the assay with 786-0 is 19.9 µM (inactive); with DLD-1, 21.4 µM (inactive); with HCT-116, 12.7 µM (inactive); in the assay on IGROV-1, 25.7 µM (inactive); in the assay on KM-20L2, 17.5 µM (inactive); in the assay on Malme-3M, 12.1 µM (inactive). Moreover, the GI50 in the assay with NCI-H23 was 20.4 µM (inactive); with NCI-H522, 18.6 µM (inactive); in the assay on OVCAR-3, 14.8 µM (inactive); in the assay on RXF 393, 19.2 µM (inactive); in the assay with SF-295, 20.2 µM (inactive); in the assay with SN12C, 12.3 µM (inactive). In addition, the values for the GI50 with TK-10, with UACC-257 and in the assay with XF498 were 31.4 µM (inactive), 8.93 µM (inactive) and 15 µM (inactive), respectively.
As for `Cc1cc(O)c2c(c1O)C(=O)C13C(=C(O)C4C(O)C1C1C(O)C3C(O)=C3C(=O)c5c(O)cc(C)c(O)c5C(=O)C341)C2=O` (stereo not drawn), the GI50 in the assay on DLD-1 was 0.0455 µM (active); with HCT-116, 0.0342 µM (active); in the assay with HOP-18, 0.0615 µM (active); in the assay on IGROV-1, 0.137 µM (active); with KM-20L2 it was 4.28 µM (inactive); in the assay on Malme-3M it was 0.0428 µM (active). Also, the GI50 with NCI-H23 was 0.207 µM (active); with NCI-H522, 0.185 µM (active); with OVCAR-3 it was 3.56 µM (inactive); with RXF 393, 0.0491 µM (active); with SF-295, 0.03 µM (active); in the assay on SN12C, 0.0471 µM (active). The GI50 in the assay with UACC-257 is 0.267 µM (active); in the assay on XF498, 0.134 µM (active).
As for `C[S+](C)CC1OC(n2cnc3c(N)ncnc32)C(O)C1O` (stereo not drawn), the GI50 in the assay with DLD-1, with HCT-116, in the assay with IGROV-1, in the assay on KM-20L2, in the assay with Malme-3M and in the assay on NCI-H23 was > 225 µM (inactive) in each case. Further, the GI50 was > 225 µM (inactive) in the assay on NCI-H522; > 225 µM (inactive) in the assay on OVCAR-3; > 225 µM (inactive) with RXF 393; > 225 µM (inactive) in the assay on SF-295; > 178 µM (inactive) in the assay on SN12C; > 225 µM (inactive) in the assay with UACC-257. In the assay with XF498, the GI50 was > 225 µM (inactive).
